“Also recorded” adds a separate entry of the source. One block for each molecule: values may come before it.
Tests used:
ST2L [1] = assay: ST2L protein stability in primary MEFs treated with CHX (immunoblot, flow cytometry); type: cell-based, mouse
Procedure: (§1) Primary mouse embryonic fibroblast cells (MEFs) were prepared as previously described^35. Briefly, mouse embryos were collected around embryonic day 14. Visible organs such as the brain, liver, and spleen were removed, and the leftover tissue was quickly minced and incubated in 0.25% trypsin-EDTA for 2 hr at 37° C. Cells were then washed with media and seeded in DMEM with 10% FBS, 1% penicillin/streptomycin and 0.055 mM β-mercaptoethanol. Every three days cells were passaged. Starting at passage 2, cells were used for studies.
Dead cells were routinely excluded with Zombie UV Fixable Viability Kit (BioLegend) or Fixable Aqua Dead Cell Stain (Thermo Fisher Scientific). Lineage-positive cells were excluded by staining for B220 (RA3-6B2), […] (145-2C11), TCRβ (H57-597), TCRγδ (eBioGL3), Ter119 (Ter119), NK1.1 (PK136), CD11b (M1/70), and CD11c (N418). For surface staining CD45 (30-F11), KLRG1 (2F1), CD25 (PC61.5), CD127 (A7R34), Sca1 (D7), Thy1/CD90.2 (53-2.1), and ST2 (RMST2-2, eBioscience) were used. For intracellular staining, cells were fixed and permeabilized with the Transcription Buffer Set (BD Pharmingen) per manufacturer's instructions followed by staining with anti-GATA3 (TWAJ, eBioscience), anti-IL-5 (TRFK5, Biolegend) and anti-IL-13 (eBio13A, eBioscience). Stained cells were used for flow cytometry analysis using a LSRII or Attune NxT (Becton Dickinson, BD) flow cytometer. Data were analyzed using the FlowJo software. Different cell types were identified by the following gating strategies^36,37: lung ILC2s (CD45^+Lin KLRG1^+CD90^+ or CD45^+Lin GATA3^+CD90^+CD25^+), BM ILC2P (CD45^+Lin^− CD127^+CD25^+).
(§2) Protein extracts from cells or tissues were prepared using whole protein lysis buffer (WL buffer) containing 50 mM Tris (pH 8), 0.4M NaCl, 0.5% NP-40, 10% glycerol, 1 mM EDTA, 1 mM DTT, and 1 mM PMSF as described previously^39. To extract proteins from MEFs, cells were washed with PBS once and then lysed with WL buffer on ice for 30 min. Lung or brain tissues from mice that had been euthanized and perfused with cold PBS were directly homogenized in the presence of WL buffer or alternatively, tissues were briefly disrupted in PBS and the insoluble fractions were then lysed in WL buffer for protein extraction. Immunoblot analysis was performed using the following antibodies: anti-ST2L (R3880-2, Abiocode), anti-ST2 (M3880-1, Abiocode), anti-SV2A (M3004-1, Abiocode), anti-Tubulin (M0267-1b, Abiocode).

ST2L [2] = assay: Immunoblot analysis of ST2L in lungs of LEV-treated mice; type: in vivo, mouse; details: LEV intranasal for 4 hr or daily for three consecutive days (3D), vs PBS
From the text: (§3) Sv2a^+/− mice on C57BL/6 129Sv mixed genetic background^21 were purchased from the Jackson laboratory (B6;129P2-Sv2a^tm1SudSv2b^tm1Sud/J) and were backcrossed to C57 background for at least 5 generations prior to use. Mice were housed under specific-pathogen-free conditions. Sex-matched littermates between 6 and 16 weeks of age were used for experiments if not otherwise indicated. C57BL/6 mice were purchased from the Jackson Laboratory or the UCLA animal core facility. C57BL/6 mice were randomly assigned to treatment groups after matching for sex and age. […] For the IL-33 or papain-induced lung inflammation models, mice were treated intranasally on days 1, 2, and 3. Bone marrows and lungs were harvested, processed, and analyzed on day 4. The inventors were not blinded to allocation during the studies. All studies were conducted in accordance with animal protocols approved by the Animal Research Committee of the University of California Los Angeles.
(§4) Protein extracts from cells or tissues were prepared using whole protein lysis buffer (WL buffer) containing 50 mM Tris (pH 8), 0.4M NaCl, 0.5% NP-40, 10% glycerol, 1 mM EDTA, 1 mM DTT, and 1 mM PMSF as described previously^39. To extract proteins from MEFs, cells were washed with PBS once and then lysed with WL buffer on ice for 30 min. […]

lung ILC2s [3] = assay: Flow cytometry analysis of lung ILC2 responses in LEV-treated naive mice; type: in vivo, mouse; details: LEV 17 mg/kg intranasal daily day 1, 2, 3
From the text: as §3
Mice were euthanized and perfused with cold PBS. Lung lobes were diced into small pieces and incubated with 0.2 mg/mL collagenase P. 0.8 mg/mL Dispase II, 0.1 mg/mL DNase I in RPMI1640 containing 5% FBS for 1 hr at 37° C. before being mashed through […] cell strainers. Bone marrow cells were collected by flushing out the marrow from femurs and tibias using a syringe with PBS. Red blood cells were removed using RBC lysis buffer (Sigma-Aldrich, Cat #: R7757) according to the manufacturer's recommendations followed by 1×PBS wash. After saturating the Fc-receptors with CD16/CD32-blocking antibody (BioLegend), single-cell suspensions were incubated on ice with conjugated antibodies in PBS (Ca^2+ and Mg^2+-free).
Dead cells were routinely excluded with Zombie UV Fixable Viability Kit (BioLegend) or Fixable Aqua Dead Cell Stain (Thermo Fisher Scientific). Lineage-positive cells were excluded by staining for B220 (RA3-6B2), […] (145-2C11), TCRβ (H57-597), TCRγδ (eBioGL3), Ter119 (Ter119), NK1.1 (PK136), CD11b (M1/70), and CD11c (N418). […] Data were analyzed using the FlowJo software. […]

lung ILC2s [4] = assay: Papain-induced mouse lung inflammation model, flow cytometry of lung ILC2s; type: in vivo; details: papain 50 μg + LEV 17 mg/kg intranasal daily day 1, 2, 3; day 4; vs papain alone
From the text: as §3
(§5) Mice were euthanized and perfused with cold PBS. […]
(§6) Dead cells were routinely excluded with Zombie UV Fixable Viability Kit (BioLegend) or Fixable Aqua Dead Cell Stain (Thermo Fisher Scientific). […] Data were analyzed using the FlowJo software. […]

SV2A protein [5] = molecular target: T1, SV2A protein (Mus musculus, UniProt Q9JIS5); assay: Cell-free protein stability assay (lung or brain protein extracts, immunoblot with anti-SV2A); type: biochemical
T1 construct: from tissue; host or cells: lung and brain of C57BL/6 mice
Procedure: Proteins extracts were prepared by incubating WL buffer with brain or lung tissues that had been pre-washed with PBS. […] The reaction mixtures were subsequently incubated at 37° C. for 1 hr, and the reactions were terminated by adding 20 μl of 4×SDS sample buffer followed by denaturing at 95° C. for 5 min. The samples were then analyzed directly by immunoblot analysis.
These two models were tested using the in vitro cell-free protein stability assays. […] We prepared two groups of reaction mixtures by mixing 0.2 μg of brain protein extract from WT mice with an excessive amount of either brain protein extract or lung protein extract prepared from Sv2a^−/− pup.

BM ILC2P = assay: Flow cytometry analysis of bone marrow ILC2P in LEV-treated mice; type: in vivo, mouse; details: LEV 17 mg/kg intranasal daily day 1, 2, 3; BM harvested day 4
From the text: as §3, §5, §6

SV2A protein [6] = molecular target: T1, SV2A protein; assay: Immunoblot analysis of SV2A protein in lungs and brain of intranasally treated mice; type: in vivo
From the text: as §3, §4

Il13 and Il5 = assay: Q-PCR analysis of Il13 and Il5 gene induction in primary MEFs treated with IL-33; type: cell-based, mouse; details: WT MEFs
Procedure: as §1
Quantitative real time polymerase chain reaction (Q-PCR) analyses were performed as described^38. Briefly, cDNA prepared using the iScript cDNA Synthesis kit (Bio-Rad) were analyzed by Q-PCR using the CFX-96 Real-Time Detection System (Bio-Rad). The Q-PCR primer sequences of genes were: Sv2a forward—[…] (SEQ ID NO:2), Sv2a reverse […] (SEQ ID NO:3), St2l forward […] (SEQ ID NO:4), St2l reverse […] (SEQ ID NO:5), sSt2 forward—[…] (SEQ ID NO:6), sSt2 reverse […] (SEQ ID NO:7). Il1rap forward—[…] (SEQ ID NO:8), Il1rap reverse—[…] (SEQ ID NO:9), Il5 forward—[…] (SEQ ID NO:10), Il5 reverse—[…] (SEQ ID NO:11), Il13 forward—[…] (SEQ ID NO:12), Il13 reverse—[…] (SEQ ID NO:13), Hprt forward—[…] (SEQ ID NO:14), Hprt reverse—[…] (SEQ ID NO:15), Gapdh forward—[…] (SEQ ID NO:16), Gapdh reverse—[…] (SEQ ID NO:17).

Sv2a mRNA = assay: Q-PCR analysis of lung Sv2a gene expression in intranasally treated mice; type: in vivo, mouse; details: IL-33 100 ng intranasal, 4 hr
From the text: as §3, with “For the IL-33 or papain-induced lung inflammation models, mice were treated intranasally on days 1, 2, and 3. Bone marrows and lungs were harvested, processed, and analyzed on day 4.” left out
Quantitative real time polymerase chain reaction (Q-PCR) analyses were performed as described^38. Briefly, cDNA prepared using the iScript cDNA Synthesis kit (Bio-Rad) were analyzed by Q-PCR using the CFX-96 Real-Time Detection System (Bio-Rad). The Q-PCR primer sequences of genes were: Sv2a forward—[…] (SEQ ID NO:2), Sv2a reverse […] (SEQ ID NO:3), St2l forward […] (SEQ ID NO:4), St2l reverse […] (SEQ ID NO:5), sSt2 forward—[…] (SEQ ID NO:6), sSt2 reverse […] (SEQ ID NO:7). Il1rap forward—[…] (SEQ ID NO:8), Il1rap reverse—[…] (SEQ ID NO:9), Il5 forward—[…] (SEQ ID NO:10), Il5 reverse—[…] (SEQ ID NO:11), Il13 forward—[…] […]

ST2L [7] = assay: Immunoblot analysis of ST2L expression in primary MEFs treated with IL-33; type: cell-based, mouse
Procedure: as §1, §2

T1 sequence (Q9JIS5 whole entry): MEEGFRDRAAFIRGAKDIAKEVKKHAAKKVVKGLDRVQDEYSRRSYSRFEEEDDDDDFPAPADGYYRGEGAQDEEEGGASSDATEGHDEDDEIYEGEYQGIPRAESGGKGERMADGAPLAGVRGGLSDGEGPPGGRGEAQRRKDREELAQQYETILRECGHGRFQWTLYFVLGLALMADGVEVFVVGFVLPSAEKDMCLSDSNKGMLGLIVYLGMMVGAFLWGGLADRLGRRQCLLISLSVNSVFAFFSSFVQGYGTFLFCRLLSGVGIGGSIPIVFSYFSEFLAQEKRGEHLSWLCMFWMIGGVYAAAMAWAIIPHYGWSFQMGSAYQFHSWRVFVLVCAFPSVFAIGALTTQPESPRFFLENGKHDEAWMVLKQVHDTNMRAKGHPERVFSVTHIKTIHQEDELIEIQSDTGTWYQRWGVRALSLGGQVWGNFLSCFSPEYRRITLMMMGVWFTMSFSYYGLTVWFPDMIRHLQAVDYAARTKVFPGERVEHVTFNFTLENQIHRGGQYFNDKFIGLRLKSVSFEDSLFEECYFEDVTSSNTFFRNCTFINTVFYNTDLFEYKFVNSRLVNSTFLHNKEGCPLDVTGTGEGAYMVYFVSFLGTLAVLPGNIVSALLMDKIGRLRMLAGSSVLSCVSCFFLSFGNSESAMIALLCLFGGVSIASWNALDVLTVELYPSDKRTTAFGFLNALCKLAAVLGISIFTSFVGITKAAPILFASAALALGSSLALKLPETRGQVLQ

Molecule: C[C@@H]1C[C@@H]([C@H](O)CC2CC(=O)NC(=O)C2)C(=O)[C@@H](C)C1 [CHX, cycloheximde]
- ST2L expression (immunoblot) (ST2L [1]; Sv2a KO MEFs, 6 hr after CHX treatment): no longer detectable
- reduction of percentage of ST2+ cells (flow cytometry) (ST2L [1]; Sv2a KO MEFs, CHX 20 hr): more than 15 fold
- percentage of ST2+ cells after CHX (ST2L [1]; Sv2a KO MEFs, CHX 20 hr (from 13.7% untreated)): 0.78%
- ST2L expression (immunoblot) (ST2L [1]; WT MEFs, 6 hr after CHX treatment): only modestly reduced
- ST2L expression (immunoblot) (ST2L [1]; WT MEFs, CHX for 20 hr): remained to be detectable
- reduction of ST2+ cells (flow cytometry) (ST2L [1]; WT primary MEFs, CHX 20 hr): about 3 fold
- percentage of ST2+ cells after CHX (ST2L [1]; WT primary MEFs, CHX 20 hr (from 20.5% untreated)): 6.35%

Molecule: CC[C@@H](C(N)=O)N1CCCC1=O [LEV, (S)-(−)-α-ethyl-2-oxo-1-pyrrolidine acetamide]
- ST2L protein in the lungs (immunoblot) (ST2L [2]): clear suppression; also recorded: reduced
- populations of lung ILC2 cells producing IL-13 and IL-5 (lung ILC2s [3]; day 4): suppressed
- reduction of the cell numbers of lung ILC2s (lung ILC2s [3]; lungs harvested day 4): about 50%
- reduction of the frequency of lung ILC2s (lung ILC2s [3]; lungs harvested day 4): about 50%
- frequency of lung ILC2s, papain-induced ILC2 responses (lung ILC2s [4]): reducing
- production of IL-5 and IL-13 by lung ILC2s, papain-induced (lung ILC2s [4]): blocking
- degradation of brain SV2A protein with excess lung protein extracts from Sv2a-/- pup (SV2A protein [5]; 0.2 μg WT brain extract, 10 mM LEV): completely degraded
- degradation of brain SV2A protein with excess brain protein extracts from Sv2a-/- pup (SV2A protein [5]; 0.2 μg WT brain extract, LEV 0.1 mM, 0.5 mM, 10 mM): did not cause the degradation
- SV2A protein in brain extracts (SV2A protein [5]; brain extracts, LEV, similar conditions (37° C.)): failed to reduce
- development of BM ILC2P (BM ILC2P): suppressed
- SV2A protein in the brain (immunoblot) (SV2A protein [6]; LEV 17 mg/kg intranasal, C57/BL6 mice): did not reduce

- SV2A protein in the lungs (immunoblot) (SV2A protein [6]; IL-33 100 ng intranasal, 4 hr): reduction; also recorded: suppressed
B1: IL-33: alarmin cytokine that signals through its receptor ST2; used as stimulus (R&D) (protein, UniProt O95760 1-270, looked up)
Interleukin-33: MKPKMKYSTNKISTAKWKNTASKALCFKLGKSQQKAKEVCPMYFMKLRSGLMIKKEACYFRRETTKRPSLKTGRKHKRHLVLAACQQQSTVECFAFGISGVQKYTRALHDSSITGISPITEYLASLSTYNDQSITFALEDESYEIYVEDLKKDEKKDKVLLSYYESQHPSNESGDGVDGKMLMVTLSPTKDFWLHANNKEHSVELHKCEKPLPDQAFFVLHNMHSNCVSFECKTDPGVFIGVKDNHLALIKVDSSENLCTENILFKLSET
- IL33-triggered induction of Il13 and Il5 (Q-PCR) (Il13 and Il5): significantly increased
- levels of Sv2a mRNA in the lungs (Q-PCR) (Sv2a mRNA): did not suppress
- level of ST2L (immunoblot) (ST2L [7]; Sv2a KO MEFs, IL-33 for 20 hr): dramatic reduction
- level of ST2L (immunoblot) (ST2L [7]; WT MEFs, IL-33): not reduced
